Where two headings read alike, the source gives them in different places.
Legend:
[1] = target: NA enzymatic activity of A/New Jersey/15/2007 (Influenza A virus (H1N1), UniProt D5F1R0, H275Y); type: biochemical, IFV A (H1N1); settings: for R/S: A/New Jersey/15/2007, NI assay
[2] = target: NA enzymatic activity of A/St.Louis/758/09 (Influenza A virus, UniProt D0FH51, S5N); assay: biochemical; type: biochemical, IFV A (H1N1); settings: for R/S: NI assay
[3] = system: A/Victoria/3/75 (H3N2) with A28T(HA) and R292K(NA) mutations; settings: cited from earlier work
[4] = target: NA enzymatic activity of A/Georgia/20/2006 H274Y (Influenza A virus (H1N1), UniProt B1AGS8); assay: biochemical; type: biochemical

**Q.** With CCC(CC)O[C@@H]1C=C(C(=O)O)C[C@H](N)[C@H]1NC(C)=O [oseltamivir, oseltamivir carboxylate] as the compound, how does the R/S [1] read?
**A.** R

**Q.** What about the IC50 ([1]; A/New Jersey/15/2007 reference virus, mean of triplicate analysis) of the same compound?
**A.** 124 nM

**Q.** And the R/S ([2]; A/St.Louis/758/09)?
**A.** R

**Q.** And the IC50 ([2]; A/St.Louis/758/09, mean of triplicate analysis, read-out: IC50)?
**A.** 88.4 nM

**Q.** What about the Resistance [3] of the same compound?
**A.** 3230 fold

**Q.** What about the R/S [4] of the same compound?
**A.** R

**Q.** And the IC50 ([4]; read-out: IC50)?
**A.** 192 nM

**Q.** With CC(=O)N[C@H]1[C@H]([C@H](O)[C@H](O)CO)OC(C(=O)O)=C[C@@H]1N=C(N)N [zanamivir] as the compound, how does the R/S [1] read?
**A.** S

**Q.** What about the IC50 [2] of the same compound?
**A.** 0.34 nM

**Q.** And the R/S ([2]; A/St.Louis/758/09)?
**A.** S

**Q.** What about the Resistance [3] of the same compound?
**A.** 60 fold

**Q.** And the IC50 [4]?
**A.** 0.57 nM

**Q.** What about the R/S [4] of the same compound?
**A.** S

— publication PMC2770896, “Inhibition of Neuraminidase Inhibitor-Resistant Influenza Virus by DAS181, a Novel Sialidase Fusion Protein” (PLoS ONE, 2009)
